Test results: US5708169A, “5-amidomethyl α,β-saturated and -unsaturated 3-aryl butyrolactone antibacterial agents” (Pharmacia & Upjohn Company, priority 1996, dated 1998)
≈ marks a conversion by molar mass, not a printed value. Read-outs that look alike come from different tables or passages of the source.

What was measured:
[1] = test system: Staphylococcus Aureus 9213; assay: MIC by agar dilution (NCCLS), Staphylococcus aureus 9213; assay type: cell-based
Method: (§1) The saturated and unsaturated 3-aryl butyrolactone compounds of the present invention have useful activity against a variety of organisms. The in vitro activity of compounds of the present invention are assessed by standard testing procedures such as the determination of minimum inhibitory concentration (MIC) by agar dilution as described in "Methods for Dilution Antimicrobial Susceptiblity Tests for Bacteria That Grow Aerobically" (MFT) published January 1993 by the National Committee for Clinical Laboratory Standards. (NCCLS), 771 East Lancaster Avenue, Villanova, Pa. 19084 USA. The activity of selected compounds of the present invention against Staphylococcus aureus and Streptococcus pneumoniae are shown in Table 1.

S. aureus UC9213 = assay: Murine Assay, in vivo antimicrobial activity (ED50, survival); set-up: species or system Staphylococcus aureus (infected female mice); conditions: Staphylococcus aureus, 144 h, read-out: ED50 (S. aureus UC9213, sq)
Method: Antimicrobial activity was tested in vivo using the Murine Assay procedure. Groups of female mice (six mice of 18-20 grams each) are injected intraperitoneally with bacteria which is thawed just prior to use and suspended in brain heart infusion with 4% brewer's yeast (Staphylococcus aureus) or brain heart infusion (Streptococcus species). Antibiotic treatment at six dose levels per drug is administered one hour and five hours after infection by either oral intubation or subcutaneous routes. Survival is observed daily for six days. ED50 values based on mortality ratios are calculated using probit analysis. The subject compounds are compared against well-known antimicrobials as controls.

[2] = test system: Staphylococcus Pneumoniae 9912; assay: MIC by agar dilution (NCCLS), Streptococcus pneumoniae 9912; assay type: cell-based; conditions: S. pneumoniae 9912
Method: as §1

| SMILES | MIC ([1]; AUREUS9213, agar dilution, S. aureus 9213, read-out: MIC Staphylococcus Aureus 9213) | ED50 (S. aureus UC9213; infected ip, mice infected i.p. with S. aureus UC9213, sq treatment 1 h and 5 h after infection, survival six days, probit analysis) | MIC [2] | MIC ([1]; AUREUS9213, read-out: Vancomycin MIC) | ED50 (S. aureus UC9213; UC9213, infected ip) |
| --- | --- | --- | --- | --- | --- |
| COc1ccc(-c2ccc(C3=CC(CNC(C)=O)OC3=O)cc2)ccc1=O (centres unmarked) [Example 1, Acetamide, N-[[4-[4-[4-(2-methoxy)-5-oxo-1,3,6-cycloheptatrien-1-yl]phenyl]-2,5-dihydro-5-oxo-2-furanyl]methyl]-] | 2 µg/mL (≈ 5.47 µM) | 9.3 mg/kg | < 0.5 µg/mL | – | – |
| CN[C@H](CC(C)C)C(=O)N[C@H]1C(=O)N[C@@H](CC(N)=O)C(=O)N[C@H]2C(=O)N[C@H]3C(=O)N[C@H](C(=O)N[C@H](C(=O)O)c4cc(O)cc(O)c4-c4cc3ccc4O)[C@H](O)c3ccc(c(Cl)c3)Oc3cc2cc(c3O[C@@H]2O[C@H](CO)[C@@H](O)[C@H](O)[C@H]2O[C@H]2C[C@](C)(N)[C@H](O)[C@H](C)O2)Oc2ccc(cc2Cl)[C@H]1O [Vancomycin, reference compound] | – | – | – | 1 µg/mL (≈ 0.69 µM) | 1.9 mg/kg |
